Tests used:
Assay type in all cases: cell-based
[1] = biological target: T1, M1 muscarinic receptor (Homo sapiens, UniProt P11229); assay: Functional mobilization of intracellular calcium (FLIPR), M1-CHO cells; conditions: for M1 Activity: M1-CHO cells, calcium mobilization (FLIPR)
T1 construct: expressed in transfected cells; host or cells: CHO (M1-CHO)
T1 sequence (P11229 1-460): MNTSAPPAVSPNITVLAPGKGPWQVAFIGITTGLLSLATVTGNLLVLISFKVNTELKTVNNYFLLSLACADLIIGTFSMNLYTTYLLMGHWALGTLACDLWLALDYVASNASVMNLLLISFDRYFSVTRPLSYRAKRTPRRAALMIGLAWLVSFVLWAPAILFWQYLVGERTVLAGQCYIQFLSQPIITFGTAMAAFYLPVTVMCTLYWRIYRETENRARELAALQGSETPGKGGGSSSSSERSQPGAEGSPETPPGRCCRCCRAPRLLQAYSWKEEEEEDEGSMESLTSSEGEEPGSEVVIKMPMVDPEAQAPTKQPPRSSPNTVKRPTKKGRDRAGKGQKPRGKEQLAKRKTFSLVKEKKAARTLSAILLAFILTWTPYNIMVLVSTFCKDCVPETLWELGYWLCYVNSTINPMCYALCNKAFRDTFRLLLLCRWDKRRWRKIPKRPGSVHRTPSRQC
Summary of the method: (§1)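 FLIPR fluorescence (ex 488, em 540 nm) recorded 60 sec after compound addition to dye-loaded CHO cells. Agonist mode: compound alone. Antagonist mode: 15 min compound pre-incubation, then carbachol at EC80, or co-application. Efficacy expressed as % of maximal carbachol response.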

[2] = biological target: T2, M2 muscarinic receptor (Homo sapiens, UniProt P08172); assay: Functional mobilization of intracellular calcium (FLIPR), M2-CHO cells; conditions: for M2 Activity: M2-CHO cells, calcium mobilization (FLIPR)
T2 construct: expressed in transfected cells; host or cells: CHO (M2-CHO)
T2 sequence (P08172 1-466): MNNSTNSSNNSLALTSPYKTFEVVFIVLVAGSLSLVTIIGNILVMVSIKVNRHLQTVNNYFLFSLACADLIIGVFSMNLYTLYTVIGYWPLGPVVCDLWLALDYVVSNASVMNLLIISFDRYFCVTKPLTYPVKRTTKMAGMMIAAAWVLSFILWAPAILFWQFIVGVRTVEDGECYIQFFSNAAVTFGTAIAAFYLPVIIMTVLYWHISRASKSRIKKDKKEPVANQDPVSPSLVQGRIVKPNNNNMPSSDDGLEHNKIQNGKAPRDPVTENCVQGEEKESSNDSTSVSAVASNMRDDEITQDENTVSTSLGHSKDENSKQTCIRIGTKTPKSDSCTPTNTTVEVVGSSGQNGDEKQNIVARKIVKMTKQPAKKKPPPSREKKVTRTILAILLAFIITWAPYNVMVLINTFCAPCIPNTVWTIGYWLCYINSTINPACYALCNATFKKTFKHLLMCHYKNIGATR
Summary of the method: as §1

[3] = biological target: T3, M3 muscarinic receptor (Homo sapiens, UniProt P20309); assay: Functional mobilization of intracellular calcium (FLIPR), M3-CHO cells; conditions: for M3 Activity: M3-CHO cells, calcium mobilization (FLIPR)
T3 construct: expressed in transfected cells; host or cells: CHO (M3-CHO)
T3 sequence (P20309 whole entry): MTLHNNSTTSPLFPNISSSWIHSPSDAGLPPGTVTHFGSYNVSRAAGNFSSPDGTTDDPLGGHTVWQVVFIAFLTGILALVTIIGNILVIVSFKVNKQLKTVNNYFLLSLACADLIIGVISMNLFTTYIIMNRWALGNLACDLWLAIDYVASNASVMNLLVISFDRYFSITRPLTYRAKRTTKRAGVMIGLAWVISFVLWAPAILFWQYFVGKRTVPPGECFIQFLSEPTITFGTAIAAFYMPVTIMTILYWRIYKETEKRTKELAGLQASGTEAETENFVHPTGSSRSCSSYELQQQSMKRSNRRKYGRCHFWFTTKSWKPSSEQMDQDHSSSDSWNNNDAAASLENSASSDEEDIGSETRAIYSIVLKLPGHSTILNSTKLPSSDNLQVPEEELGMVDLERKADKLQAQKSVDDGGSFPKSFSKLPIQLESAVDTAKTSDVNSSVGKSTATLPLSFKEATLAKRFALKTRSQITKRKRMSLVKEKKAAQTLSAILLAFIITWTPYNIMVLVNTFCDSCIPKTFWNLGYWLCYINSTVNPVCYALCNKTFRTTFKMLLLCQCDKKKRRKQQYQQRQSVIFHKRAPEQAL
Summary of the method: as §1

[4] = biological target: T4, M4 muscarinic receptor (Homo sapiens, UniProt P08173); assay: Functional mobilization of intracellular calcium (FLIPR), M4-CHO cells; conditions: for M4 Activity: M4-CHO cells, calcium mobilization (FLIPR)
T4 construct: expressed in transfected cells; host or cells: CHO (M4-CHO)
T4 sequence (P08173 1-479): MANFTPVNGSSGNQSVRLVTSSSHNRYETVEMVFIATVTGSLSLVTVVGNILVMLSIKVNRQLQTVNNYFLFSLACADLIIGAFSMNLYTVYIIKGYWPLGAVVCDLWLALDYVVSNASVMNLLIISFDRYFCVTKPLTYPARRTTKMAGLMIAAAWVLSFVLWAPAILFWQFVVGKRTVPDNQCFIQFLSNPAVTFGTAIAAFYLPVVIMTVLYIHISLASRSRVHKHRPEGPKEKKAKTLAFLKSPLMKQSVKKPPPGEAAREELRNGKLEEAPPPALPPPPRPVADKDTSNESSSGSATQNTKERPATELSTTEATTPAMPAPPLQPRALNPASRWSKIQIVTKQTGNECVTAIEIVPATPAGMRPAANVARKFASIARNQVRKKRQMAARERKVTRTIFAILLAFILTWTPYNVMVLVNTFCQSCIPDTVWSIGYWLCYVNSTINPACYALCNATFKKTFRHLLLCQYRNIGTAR
Summary of the method: as §1

[5] = 100% efficacy = maximum response obtained with the Carbachol control

Row | Structure (SMILES) | Emax [1, 5] [%] | M1 Activity [1] | Emax [2, 5] [%] | M2 Activity [2] | Emax [3, 5] [%] | M3 Activity [3] | Emax [4, 5] [%] | M4 Activity [4] | M1 Efficacy [1, 5] | M2 Efficacy [2, 5] | M3 Efficacy [3, 5] | M4 Efficacy [4, 5]
1 | COc1ccc(-c2ccc(C(F)(F)F)cc2)cc1C1CCN([C@H]2C[C@H]3CC[C@H]2C3)CC1 [Compound 120] | 25 to 100 | + (activity was measured to be greater than 5.0 μM) | < 25 | + (activity was measured to be greater than 5.0 μM) | < 25 | + (activity was measured to be greater than 5.0 μM) | 25 to 100 | + (activity was measured to be greater than 5.0 μM) | – | – | – | –
2 | COc1ccc(Cl)cc1C1CCN(CC2CCOCC2)CC1 [Compound 121] | 25 to 100 | ++ (activity was measured to be from 1.0 μM to 5.0 μM) | < 25 | + (activity was measured to be greater than 5.0 μM) | < 25 | + (activity was measured to be greater than 5.0 μM) | 25 to 100 | +++ (activity was measured to be less than 1.0 μM) | – | – | – | –
3 | CCOC(=O)N1CCC(CN2CCC(F)(c3cc(Cl)ccc3OC)CC2)CC1 [Compound 122] | 25 to 100 | ++ (activity was measured to be from 1.0 μM to 5.0 μM) | 25 to 100 | ++ (activity was measured to be from 1.0 μM to 5.0 μM) | < 25 | + (activity was measured to be greater than 5.0 μM) | 25 to 100 | +++ (activity was measured to be less than 1.0 μM) | – | – | – | –
4 | COc1ccc(Cl)cc1C1(OC)CCN(CC2CCOCC2)CC1 [Compound 123] | 25 to 100 | ++ (activity was measured to be from 1.0 μM to 5.0 μM) | < 25 | + (activity was measured to be greater than 5.0 μM) | < 25 | + (activity was measured to be greater than 5.0 μM) | < 25 | + (activity was measured to be greater than 5.0 μM) | – | – | – | –
5 | COc1ccc(-c2ccncc2)cc1C1CCN([C@@H]2C[C@@H]3CC[C@H]2C3)CC1 [Compound 124, 4-(3-(1-((1S,2R,4R)-bicyclo[2.2.1]heptan-2-yl)piperidin-4-yl)-4-methoxyphenyl) pyridine] | < 25 | + (activity was measured to be greater than 5.0 μM) | < 25 | + (activity was measured to be greater than 5.0 μM) | < 25 | + (activity was measured to be greater than 5.0 μM) | < 25 | + (activity was measured to be greater than 5.0 μM) | – | – | – | –
6 | COc1ccc(-c2ccc(OC(F)(F)F)cc2)cc1C1CCN([C@H]2C[C@H]3CC[C@H]2C3)CC1 [Compound 126] | 25 to 100 | + (activity was measured to be greater than 5.0 μM) | < 25 | + (activity was measured to be greater than 5.0 μM) | < 25 | + (activity was measured to be greater than 5.0 μM) | 25 to 100 | + (activity was measured to be greater than 5.0 μM) | – | – | – | –
7 | O=C(COc1ccccc1C1CCN([C@H]2C[C@H]3CC[C@H]2C3)CC1)c1ccc(N2CCCC2)cc1 [Compound 127] | 25 to 100 | ++ (activity was measured to be from 1.0 μM to 5.0 μM) | 25 to 100 | ++ (activity was measured to be from 1.0 μM to 5.0 μM) | < 25 | + (activity was measured to be greater than 5.0 μM) | 25 to 100 | +++ (activity was measured to be less than 1.0 μM) | – | – | – | –
8 | COc1ccc(-c2ccc(C(=O)N3CCCCC3)cc2)cc1C1CCN([C@H]2C[C@H]3CC[C@H]2C3)CC1 [Compound 128] | < 25 | + (activity was measured to be greater than 5.0 μM) | < 25 | + (activity was measured to be greater than 5.0 μM) | < 25 | + (activity was measured to be greater than 5.0 μM) | < 25 | ++ (activity was measured to be from 1.0 μM to 5.0 μM) | – | – | – | –
9 | COc1ccc(-c2ccc(S(=O)(=O)N3CCCC3)cc2)cc1C1CCN(C2CC3CCC(C3)C2)CC1 (stereo not drawn) [Compound 129] | < 25 | + (activity was measured to be greater than 5.0 μM) | < 25 | + (activity was measured to be greater than 5.0 μM) | < 25 | + (activity was measured to be greater than 5.0 μM) | 25 to 100 | + (activity was measured to be greater than 5.0 μM) | – | – | – | –
10 | COc1ccc(Cl)cc1C1CCN(C2CCC(=NOC(C)(C)C)CC2)CC1 (stereo not drawn) [Compound 130] | – | ++ (activity was measured to be from 1.0 μM to 5.0 μM) | – | + (activity was measured to be greater than 5.0 μM) | – | + (activity was measured to be greater than 5.0 μM) | – | +++ (activity was measured to be less than 1.0 μM) | ++ (efficacy was calculated to be from 100% to 25%) | + (efficacy was calculated to be less than 25%) | + (efficacy was calculated to be less than 25%) | ++ (efficacy was calculated to be from 100% to 25%)
11 | COc1ccccc1C1CC2CCC(C1)N2C1CCCCC1 (stereo not drawn) [Compound 132] | < 25 | ++ (activity was measured to be from 1.0 μM to 5.0 μM) | < 25 | + (activity was measured to be greater than 5.0 μM) | < 25 | + (activity was measured to be greater than 5.0 μM) | < 25 | ++ (activity was measured to be from 1.0 μM to 5.0 μM) | – | – | – | –
12 | Clc1cccc(C2CCN(C3CC4CCC(C4)C3)CC2)c1 (stereo not drawn) [Compound 133] | 25 to 100 | + (activity was measured to be greater than 5.0 μM) | < 25 | + (activity was measured to be greater than 5.0 μM) | < 25 | + (activity was measured to be greater than 5.0 μM) | 25 to 100 | +++ (activity was measured to be less than 1.0 μM) | – | – | – | –
13 | COc1ccc(F)cc1C1(F)CCN(C[C@H]2C[C@H]3C=C[C@H]2C3)CC1 [Compound 134] | 25 to 100 | ++ (activity was measured to be from 1.0 μM to 5.0 μM) | 25 to 100 | ++ (activity was measured to be from 1.0 μM to 5.0 μM) | < 25 | + (activity was measured to be greater than 5.0 μM) | 25 to 100 | +++ (activity was measured to be less than 1.0 μM) | – | – | – | –
14 | Cc1ccc(C)c(C2(O)CCN(C3CC4CCC3C4)CC2)c1 (stereo not drawn) [Compound 135] | 25 to 100 | + (activity was measured to be greater than 5.0 μM) | < 25 | + (activity was measured to be greater than 5.0 μM) | – | + (activity was measured to be greater than 5.0 μM) | < 25 | + (activity was measured to be greater than 5.0 μM) | – | – | – | –
